How the values were obtained:
[1] = tested on: Pseudomonas aeruginosa; test: Antibacterial activity against wild type Pseudomonas aeruginosa PAO1 assessed as reduction in bacterial growth by measuring doxycycline MIC at 0.25 ug/ml incubated for 18 hrs in presence of doxycycline by broth microdilution assay (reference value: 16 ug/ml); assay type: functional; conditions: dose 0.25 µg/ml
[2] = tested on: Pseudomonas aeruginosa; test: Antibacterial activity against Pseudomonas aeruginosa 260-97103 assessed as fractional inhibitory concentration incubated for 18 hrs in presence of chloramphenicol by broth microdilution assay; assay type: functional
[3] = tested on: Pseudomonas aeruginosa; test: Antibacterial activity against Pseudomonas aeruginosa 100036 assessed as reduction in bacterial growth by measuring chloramphenicol MIC at 8 ug/ml incubated for 18 hrs in presence of chloramphenicol by broth microdilution assay (reference value: 1024 ug/ml); assay type: functional; conditions: dose 8 µg/ml
[4] = tested on: Pseudomonas aeruginosa; test: Antibacterial activity against Pseudomonas aeruginosa 260-97103 assessed as reduction in bacterial growth by measuring doxycycline MIC at 8 ug/ml incubated for 18 hrs in presence of doxycycline by broth microdilution assay (reference value: 16 ug/ml); assay type: functional; conditions: dose 8 µg/ml
[5] = tested on: Acinetobacter baumannii; test: Potentiation of chloramphenicol-induced antibacterial activity against Acinetobacter baumannii ATCC 17978 assessed as fold change in chloramphenicol MIC at 7.6 uM incubated for 18 hrs in presence of chloramphenicol by broth microdilution assay relative to control; assay type: functional
[6] = tested on: Pseudomonas aeruginosa; test: Potentiation of doxycycline-induced antibacterial activity against Pseudomonas aeruginosa 264-101354 assessed as fold change in doxycycline MIC at 7.6 uM incubated for 18 hrs in presence of doxycycline by broth microdilution assay relative to control; assay type: functional
[7] = tested on: Pseudomonas aeruginosa; test: Potentiation of chloramphenicol-induced antibacterial activity against Pseudomonas aeruginosa 101243 assessed as fold change in chloramphenicol MIC at 7.6 uM incubated for 18 hrs in presence of chloramphenicol by broth microdilution assay relative to control; assay type: functional
[8] = tested on: Pseudomonas aeruginosa; test: Potentiation of doxycycline-induced antibacterial activity against Pseudomonas aeruginosa 100036 assessed as fold change in doxycycline MIC at 7.6 uM incubated for 18 hrs in presence of doxycycline by broth microdilution assay relative to control; assay type: functional
[9] = tested on: Pseudomonas aeruginosa; test: Antibacterial activity against Pseudomonas aeruginosa 101885 assessed as fractional inhibitory concentration incubated for 18 hrs in presence of minocycline by broth microdilution assay; assay type: functional
[10] = tested on: Pseudomonas aeruginosa; test: Antibacterial activity against Pseudomonas aeruginosa 101885 assessed as potentiation of chloramphenicol-induced antibacterial activity by measuring chloramphenicol MIC at 9.8 uM incubated for 18 hrs in presence of chloramphenicol by broth microdilution assay (reference value: 512 ug/ml); assay type: functional
[11] = tested on: Pseudomonas aeruginosa; test: Antibacterial activity against Pseudomonas aeruginosa 101885 assessed as fractional inhibitory concentration index incubated for 18 hrs in presence of rifampicin by broth microdilution assay; assay type: functional
[12] = tested on: Pseudomonas aeruginosa; test: Antibacterial activity against Pseudomonas aeruginosa 100036 assessed as fractional inhibitory concentration incubated for 18 hrs in presence of tigecycline by broth microdilution assay; assay type: functional
[13] = tested on: Pseudomonas aeruginosa; test: Potentiation of doxycycline-induced antibacterial activity against Pseudomonas aeruginosa 101243 assessed as fold change in doxycycline MIC at 9.8 uM incubated for 18 hrs in presence of doxycycline by broth microdilution assay relative to control; assay type: functional
[14] = tested on: Pseudomonas aeruginosa; test: Potentiation of doxycycline-induced antibacterial activity against Pseudomonas aeruginosa 264-101354 assessed as fold change in doxycycline MIC at 9.8 uM incubated for 18 hrs in presence of doxycycline by broth microdilution assay relative to control; assay type: functional
[15] = tested on: Pseudomonas aeruginosa; test: Potentiation of doxycycycline-induced bactericidal activity against Pseudomonas aeruginosa PAO1 assessed as bacterial viability at 9.8 microM incubated for 9 hrs in LB medium in presence of doxycycline followed by plating on agar plate and measured after 20 hrs by time-kill assay; assay type: functional; conditions: time 29 hrs
[16] = tested on: Pseudomonas aeruginosa; test: Antibacterial activity against Pseudomonas aeruginosa 101885 assessed as fractional inhibitory concentration incubated for 18 hrs in presence of tigecycline by broth microdilution assay; assay type: functional
[17] = tested on: Pseudomonas aeruginosa; test: Potentiation of doxycycline-induced antibacterial activity against Pseudomonas aeruginosa 114228 assessed as fold change in doxycycline MIC at 9.8 uM incubated for 18 hrs in presence of doxycycline by broth microdilution assay relative to control; assay type: functional
[18] = tested on: Pseudomonas aeruginosa; test: Antibacterial activity against Pseudomonas aeruginosa 259-96918 assessed as fractional inhibitory concentration incubated for 18 hrs in presence of tigecycline by broth microdilution assay; assay type: functional
[19] = tested on: HepG2; test: Cytotoxicity against human HepG2 cells assessed as cell viability at 50 uM incubated for 48 hrs in presence of chloramphenicol by prestoblue assay; assay type: cell-based; conditions: hepg2, 48 h
[20] = tested on: Pseudomonas aeruginosa; test: Potentiation of chloramphenicol-induced antibacterial activity against Pseudomonas aeruginosa 264-101354 assessed as fold change in chloramphenicol MIC at 9.8 uM incubated for 18 hrs in presence of chloramphenicol by broth microdilution assay relative to control; assay type: functional
[21] = tested on: Pseudomonas aeruginosa; test: Antibacterial activity against Pseudomonas aeruginosa 264-101354 assessed as fractional inhibitory concentration index incubated for 18 hrs in presence of minocycline by broth microdilution assay; assay type: functional
[22] = tested on: Enterobacter cloacae; test: Potentiation of doxycycline-induced antibacterial activity against Enterobacter cloacae ATCC 117029 assessed as fold change in doxycycline MIC at 9.8 uM incubated for 18 hrs in presence of doxycycline by broth microdilution assay relative to control; assay type: functional
[23] = tested on: Pseudomonas aeruginosa; test: Antibacterial activity against Pseudomonas aeruginosa 260-97103 infected in Galleria mellonella larvae assessed as mortality of larvae at 100 mg/kg administered at 3 hrs post-infection and measured every 6 hrs for 36 hrs; assay type: functional
[24] = tested on: Pseudomonas aeruginosa; test: Antibacterial activity against Pseudomonas aeruginosa 262-101856 assessed as fractional inhibitory concentration incubated for 18 hrs in presence of rifampicin by broth microdilution assay; assay type: functional
[25] = tested on: Pseudomonas aeruginosa; test: Antibacterial activity against Pseudomonas aeruginosa 114228 assessed as fractional inhibitory concentration incubated for 18 hrs in presence of minocycline by broth microdilution assay; assay type: functional
[26] = tested on: Pseudomonas aeruginosa; test: Antibacterial activity against Pseudomonas aeruginosa 101243 assessed as potentiation of chloramphenicol-induced antibacterial activity by measuring chloramphenicol MIC at 9.8 uM incubated for 18 hrs in presence of chloramphenicol by broth microdilution assay (reference value: 1 ug/ml); assay type: functional
[27] = tested on: Pseudomonas aeruginosa; test: Antibacterial activity against Pseudomonas aeruginosa 91433 assessed as fractional inhibitory concentration index incubated for 18 hrs in presence of minocycline by broth microdilution assay; assay type: functional
[28] = tested on: Pseudomonas aeruginosa; test: Antibacterial activity against Pseudomonas aeruginosa 262-101856 assessed as fractional inhibitory concentration incubated for 18 hrs in presence of tigecycline by broth microdilution assay; assay type: functional
[29] = tested on: Pseudomonas aeruginosa; test: Antibacterial activity against Pseudomonas aeruginosa 259-96918 assessed as potentiation of doxycycline-induced antibacterial activity by measuring doxycycline MIC at 9.8 uM incubated for 18 hrs in presence of doxycycline by broth microdilution assay (reference value: 32 ug/ml); assay type: functional
[30] = tested on: Pseudomonas aeruginosa; test: Antibacterial activity against Pseudomonas aeruginosa 260-97103 assessed as fractional inhibitory concentration index incubated for 18 hrs in presence of rifampicin by broth microdilution assay; assay type: functional
[31] = tested on: Pseudomonas aeruginosa; test: Antibacterial activity against Pseudomonas aeruginosa 262-101856 assessed as fractional inhibitory concentration index incubated for 18 hrs in presence of rifampicin by broth microdilution assay; assay type: functional
[32] = tested on: Pseudomonas aeruginosa; test: Antibacterial activity against Pseudomonas aeruginosa 91433 assessed as fractional inhibitory concentration incubated for 18 hrs in presence of rifampicin by broth microdilution assay; assay type: functional

**Q.** `NC[C@H]1O[C@H](O[C@H]2[C@H](O)[C@@H](O[C@H]3O[C@H](CO)[C@@H](O)[C@H](N)[C@H]3O)[C@H](N)C[C@@H]2N)[C@H](N)C[C@@H]1O` [TOBRAMYCIN] was tested. Which MIC [1] did it give?
**A.** The MIC was 8 mg/L.

**Q.** What about the FIC [2] of the same molecule?
**A.** Its FIC is 0.5.

**Q.** What about the MIC [3] of the same molecule?
**A.** Its MIC is 1020 mg/L.

**Q.** What about the MIC [4] of the same molecule?
**A.** Its MIC is 16 mg/L.

**Q.** Which “fold change (FC)” value [5] does the source give for `CO[C@H]1/C=C/O[C@@]2(C)Oc3c(C)c(O)c4c(O)c(c(/C=N/N5CCN(Cc6cn(CCCCCCCCCCCCO[C@@H]7[C@@H](O[C@H]8O[C@H](CO)[C@@H](O)[C@H](N)[C@H]8O)[C@H](N)C[C@H](N)[C@H]7O[C@H]7O[C@H](CN)[C@@H](O)C[C@H]7N)nn6)CC5)c(O)c4c3C2=O)NC(=O)/C(C)=C\C=C\[C@H](C)[C@H](O)[C@@H](C)[C@@H](O)[C@@H](C)[C@H](OC(C)=O)[C@@H]1C.O=C(O)C(F)(F)F.O=C(O)C(F)(F)F.O=C(O)C(F)(F)F.O=C(O)C(F)(F)F.O=C(O)C(F)(F)F` here?
**A.** Its value is 0.

**Q.** And the “fold change (FC)” value [6]?
**A.** The value was 4.

**Q.** What about the “fold change (FC)” value [7] of the same molecule?
**A.** Its value is 4.

**Q.** What about the “fold change (FC)” value [8] of the same molecule?
**A.** Its value is 4.

**Q.** What does the source list for `CO[C@H]1/C=C/O[C@@]2(C)Oc3c(C)c(O)c4c(O)c(c(/C=N/N5CCN(Cc6cn(CCCCCCO[C@@H]7[C@@H](O[C@H]8O[C@H](CO)[C@@H](O)[C@H](N)[C@H]8O)[C@H](N)C[C@H](N)[C@H]7O[C@H]7O[C@H](CN)[C@@H](O)C[C@H]7N)nn6)CC5)c(O)c4c3C2=O)NC(=O)/C(C)=C\C=C\[C@H](C)[C@H](O)[C@@H](C)[C@@H](O)[C@@H](C)[C@H](OC(C)=O)[C@@H]1C.Cl.Cl.Cl.Cl.Cl`?
**A.** FIC [9]: 0.063; MIC [10]: 8 mg/L; fractional inhibitory concentration index (FICI) [11]: 0.08; FIC [12]: 0.004; fold change (FC) [13]: 4; fold change (FC) [14]: 4; Activity [15]: <10 CFU/ml; FIC [16]: 0.063; fold change (FC) [17]: 4; FIC [18]: <0.125; Activity [19]: Non-Toxic; fold change (FC) [20]: 4; fractional inhibitory concentration index (FICI) [21]: 0.08; fold change (FC) [22]: 0; mortality at 100 mg/kg [23]: 100%; FIC [24]: <0.008; FIC [25]: <0.031; MIC [26]: 0.125 mg/L; fractional inhibitory concentration index (FICI) [27]: <0.25; FIC [28]: <0.063; MIC [29]: 1 mg/L; fractional inhibitory concentration index (FICI) [30]: <0.16; fractional inhibitory concentration index (FICI) [31]: <0.51; FIC [32]: <0.125
